Measured values from patent publication US11413337B2, “Peptide conjugated particles for the treatment of inflammation” (Northwestern University, priority 2012, dated 2022).
Where no end group is shown, it is not given here.

Assays:
[1] = test system: allergic airway inflammation; test: prophylactic allergic airway inflammation, OVA/Alum; format: in vivo, mouse
Description: To test the prophylactic effect of OVA encapsulated in PLG particles on airway inflammation, mice were treated intravenously with OVA-PLG at day −7. On day 0, the mice received intraperitoneal injections of OVA/Alum at a dose of 10 μg/mouse. On day 7, the mice were again treated intravenously with OVA-PLG and received another 10 μg/mouse ip injection of OVA/Alum on day 14. Between days 28 and 30, the mice were treated three times with aerosolized OVA.

mediastinal lymph nodes = test: OVA-specific in vitro recall responses from mediastinal lymph nodes; format: cell-based, mouse
Description: Moreover treatment with OVA-PLG decreases the release of cytokines after restimulation with OVA.

[2] = test system: allergic airway inflammation; test: therapeutic allergic airway inflammation, OVA/Alum; format: in vivo, mouse
Description: To test the therapeutic effect of OVA encapsulated in PLG particles on airway inflammation, mice were treated intraperitoneally with OVA/Alum at a dose of 10 μg/mouse on day 0 and day 14. The mice were intravenously administered with OVA-PLG on days 28, and 42. Between days 56-58, the mice were treated three times with aerosolized OVA.
The animals were treated as described above except that on days 28 and 42, the mice were treated with either OVA encapsulated in PLG particles, or OVA coupled to PLG particles.

CD45.1 donor cells = test: engraftment of male CD45.1 bone marrow cells in female CD45.2 mice; format: in vivo, mouse
Description: Female CD45.2 mice were tolerized with either OVA-PLG or the control peptide Dby-PLG (the major H-Y antigen expressed by Male C57BL/6 mice) on day −7. On day −1, the mice were irradiated with 200 rads and were then transplanted with 1×10^6, 5×10^6, or 1×10^7 bone marrow cells from male CD45.1 mice on day 0. The recipient mice were then tolerized with either OVA-PLG, Dby-SP, or Dby-PLG on day 1 and the blood harvested for FACS analysis of chimerism.

[3] = test system: Relapsing Experimental Autoimmune Encephalitis (R-EAE); test: prophylactic tolerance in PLP139-151/CFA-induced R-EAE, particles given day −7; format: in vivo, mouse; settings: for clinical score: treated day −7
adoptive EAE = test: adoptive transfer EAE treated with antigen-coupled PLG particles; format: in vivo, mouse; settings: for mean clinical score: treated at day 2
Description: Experiments were conducted during development of embodiments of the present invention to investigate a second model of active disease termed adoptive transfer. Rather than immunizing the animals with the peptide, the lymphocytes from the spleen of mice with active disease were transferred to a recipient, who would subsequently develop disease. Experiments were conducted during development of embodiments of the present invention to characterize the ability of the PLG nanoparticles to deactivate the adoptively transferred activated effector cells.
Therapeutic tolerance induced by PLP139-151-PLG particles was compared in active and adoptive EAE. Adoptive EAE was induced in six to eight-week old female SJL/J mice by adoptive transfer of 2.5×10^6 PLP139-151-activated blasts. Mice were injected iv with PLP139-151 (squares) or OVA323-339 (circles) peptide coupled to 500 nm PLG nanoparticles 2 days (FIG. 14A) or 14 days (FIG. 14C) following disease induction. Clinical disease scores were compared to those following treatment with antigen-coupled splenocytes (FIG. 14A). Brain and spinal cord were collected from PLP139-151- or OVA323-339-tolerized mice for histological analysis on day 42. Sections from mice from panel A were stained for PLP protein and CD45 (FIG. 14B). Spinal cord sections from mice from panel C were stained with Luxol Fast Blue (FIG. 14D). Areas of demyelination and cellular infiltration are indicated by arrows.
SJL/J mice were injected i.v. with 500 nm PLG nanoparticles coupled with PLP139-151 (squares) or OVA323-339 (circles) 2 days following EAE induction by adoptive transfer. At the peak of disease (day 14) brains and spinal cords were removed and the number of lymphocytes (FIG. 16B), APCs (FIG. 16C), microglia (FIG. 16D), peripheral dendritic cells (FIG. 16E), myeloid dendritic cells (FIG. 16F) and macrophages (FIG. 16G) were enumerated by flow cytometry. The gating strategy for these populations is depicted in (FIG. 16A). CNS cell preparations were stimulated with PMA and ionomycin for 5 h prior to intracellular staining for IL-17A and IFN-γ (FIG. 16H).

[4] = test system: Relapsing Experimental Autoimmune Encephalitis; test: treatment of active R-EAE at day 10, route of administration; format: in vivo, mouse
Description: Experiments were conducted during development of embodiments of the present invention to investigate the ability of the PLG-PLP139-151 particles to treat disease rather than prevent disease, and to determine whether the route of administration affected the development of disease. Mice were immunized at day 0 with PLP139-151 and an adjuvant. Mice normally have maximal clinical scores at day 12-14. In this model, the mice were treated at day 10 with the PLG-PLP139-151 particles or with control PLG-OVA323-339 particles either via intravenous (iv) administration, intraperitoneal (ip) administration, subcutaneous (sc) administration, or orally. […] This is in contrast to animals treated with PLP139-151 polystyrene particles, whereby >70% of animals where observed to die from anaphylaxis.

SJL/J mice with EAE = test: iv injection during EAE remission (day 21), anaphylaxis; format: in vivo, mouse; settings: administration during remission, d21
Description: EAE was induced in six to eight week old female SJL/J mice by subcutaneous injection of PLP139-151 in CFA, and development of clinical disease was monitored and recorded (FIG. 5B). On d21 relative to disease induction, mice were given iv injections of soluble PLP139-151 (clear squares), soluble OVA323-339 (clear circles), or the same peptides coupled to PLG nanoparticles (solids). Temperature of animals was monitored and recorded every 10 minutes for 1 hour following injection (FIG. 5A).

cervical spinal cord = test: spinal cord histology and in vivo imaging in R-EAE; design: species or system mouse
Description: An additional therapeutic tolerance strategy was performed by delivering PLP139-151-PLG or OVA323-339 PLG to mice. […] Mice were treated with PLP-PLG or OVA323-339-PLG and the tissue was retrieved at day 40. The cervical spinal cord was isolated and sectioned to investigate the immune response within the CNS, which underlies the pathology of R-EAE and multiple sclerosis.
The clinical scores and percent incidence of EAE were determined (FIG. 10B) and the spinal cords observed via in vivo imaging (FIGS. 10A and 11). […] The bar graphs give the numerical numbers to the signal strength shown in the brain and SC scans.

[5] = test system: OVA/Alum pre-sensitized mice; test: anaphylaxis-induced temperature drop in OVA/Alum pre-sensitized animals; format: in vivo, mouse; settings: iv on day 28; within 1 hour of delivering
Description: Due to the presence of active disease, anaphylaxis to the antigens is a concern, which could result in immediate mortality, and has been described with polystyrene bound particles. Anaphylaxis is associated with a significant drop in body temperature. To test whether intravenous administration of OVA-PLG induces an anaphylaxis-induced temperature drop in pre-sensitized animals, mice were immunized at day 0 with 10 μg OVA/Alum via intraperitoneal injection. On day 14, the mice were again immunized with 10 μg OVA/Alum via intraperitoneal injection, and then tolerized with OVA-PLG administered intravenously on day 21. On day 28, the mice were then tolerized with either OVA-PLG particles or OVA via intravenous administration.

## OVA-PLG: OVA with PLG particles: coupled in Example 3, encapsulated in Examples 12 and 13, OVA323 peptide control in Example 16
[1]
  eosinophils in the lung: reduced
  levels of serum OVA IgE: reduced
[1]; iv day −7 and day 7
  secretion of IL-4, IL-5, IL-13 and IL-10: decreased
Mediastinal lymph nodes; after restimulation with 25 μg OVA
  lymph node proliferation: decreased
Mediastinal lymph nodes; after restimulation with OVA
  levels of IL-4, IL-5, IL-13, and IL-10: decreased
[2]
  eosinophils in the lung: reduced
  levels of serum OVA IgE: reduced
[2]; iv days 28 and 42
  secretion of IL-4, IL-5, IL-13 and IL-10: decreased
CD45.1 donor cells; Day −7, Day +1 group, FIG. 28
  engraftment, one mouse: 12%
CD45.1 donor cells; tolerized day 1, FIG. 27
  engraftment (percent of donor CD45.1 cells), individual mice: ~10%

## PLP139-151-PLG: immunodominant proteolipid protein PLP139-151 epitope coupled to 500 nm PLG nanoparticles (CHCLGKWLGHPDK; cysteine pairing not given here; also: coupled to 500 nm PLG nanoparticles; UniProt P60202 139-151, looked up, fragment)
[3]; day −7, FIGS. 3A and 3B
  down-regulating induction of R-EAE, by type of particle: more effective in down-regulating induction of R-EAE
[3]; to immunizing PLP139-151 epitope
  delayed-type hypersensitivity (DTH) responses: lack of delayed-type hypersensitivity (DTH) responses
[3]; all time points except days 20 to 30
  clinical score: 0
[3]; between days 20 and 30
  clinical score: under 1
[3]; treated day −7 relative to immunization
  prevention of disease induction: specifically prevented EAE development
Adoptive EAE; adoptive EAE, iv 2 days following disease induction (FIG. 15B)
  disease (mean clinical score): reduced disease
Adoptive EAE; iv 2 or 14 days following disease induction
  tolerance induction in adoptive EAE: tolerance is induced
Adoptive EAE; iv day 2, peak of disease (day 14), flow cytometry
  infiltration of central nervous system immune cells: drastically reduced
Adoptive EAE; all but two time points through day 40
  mean clinical score: 0
Adoptive EAE; the other two time points
  mean clinical score: 0.25
[4]; active EAE, iv 10 days following disease induction (FIG. 15A)
  disease (mean clinical score): reduced disease
[4]; administered intravenously
  development of disease: did not develop disease
[4]; administered intravenously, at most time points
  mean clinical scores: 0
[4]; iv, ip, sc or oral, FIG. 7
  efficiency of tolerance by route of administration: most efficient when the PLG-PLP139-151 particles are administered either intravenously or intraperitoneally
SJL/J mice with EAE
  anaphylaxis-associated mortality: does not result in any anaphylaxis-associated mortality
Cervical spinal cord; day 40
  immune cell infiltration within the spinal cord: reduction in immune cell infiltration
Cervical spinal cord; histological analysis, tissue retrieved at day 40
  cervical spinal cord inflammation and demyelination: inhibits cervical spinal cord inflammation and demyelination
Cervical spinal cord; in vivo imaging, Angiosense and prosense
  blood brain barrier (BBB) disruption and macrophage activation in the spinal cord: inhibits blood brain barrier (BBB) disruption and macrophage activation
Cervical spinal cord; spinal cord, day 40
  staining for CD45, CD4, and CD11b: minimal staining

## PLP139-151 polystyrene particles: PLP139-151 bound to polystyrene particles (CHCLGKWLGHPDK; cysteine pairing not given here; also: bound to polystyrene particles; UniProt P60202 139-151, looked up, fragment) [reference compound]
[4]; mouse, in vivo
  animals observed to die from anaphylaxis: > 70%

B1: OVA-PLG: OVA with PLG particles: coupled in Example 3, encapsulated in Examples 12 and 13, OVA323 peptide control in Example 16 (conjugate, UniProt P01012 2-386, looked up)
Ovalbumin: GSIGAASMEFCFDVFKELKVHHANENIFYCPIAIMSALAMVYLGAKDSTRTQINKVVRFDKLPGFGDSIEAQCGTSVNVHSSLRDILNQITKPNDVYSFSLASRLYAEERYPILPEYLQCVKELYRGGLEPINFQTAADQARELINSWVESQTNGIIRNVLQPSSVDSQTAMVLVNAIVFKGLWEKAFKDEDTQAMPFRVTEQESKPVQMMYQIGLFRVASMASEKMKILELPFASGTMSMLVLLPDEVSGLEQLESIINFEKLTEWTSSNVMEERKIKVYLPRMKMEEKYNLTSVLMAMGITDVFSSSANLSGISSAESLKISQAVHAAHAEINEAGREVVGSAEAGVDAASVSEEFRADHPFLFCIKHIATNAVLFFGRCVSP
modifications: coupled to or encapsulated in PLG particles
[5]
  body temperature: No decrease in body temperature

B2: soluble OVA: soluble ovalbumin given intravenously (protein, UniProt P01012 2-386, looked up)
Ovalbumin: B1 Ovalbumin
[5]
  body temperature: decrease in temperature
